Data as given in PMC10223284, “Category-Based Toxicokinetic Evaluations of Data-Poor Per- and Polyfluoroalkyl Substances (PFAS) using Gas Chromatography Coupled with Mass Spectrometry” (Toxics, 2023).
Several values for one entry are separate records, joined by “and”; a condition that tells them apart may be missing. Equal values may be shown once. Read-outs that look alike come from different tables or passages of the source.

How the values were obtained:
human plasma [1] = experiment: Chemical stability in plasma over the UC assay time course (T5hr/T1hr); conditions: for PPB_Stab_Fail: flag for stability failure in the plasma protein binding assay (1 = fail, 0 = pass); for Fstable.Med: median fraction stable in plasma, UC assay Level4; for Stability (T5hr/ T1hr), replicates A, B, C: single replicate of one UC run
[2] = system: pooled human cryopreserved primary hepatocyte suspensions; experiment: Hepatic metabolic stability (hepatocyte clearance) assay, substrate depletion; format: in vitro ADME
From the text: (§1) William’s Medium E (Gibco A1217601), dexamethasone, and cell maintenance cocktail B (Gibco CM4000) were obtained from Thermo Fisher Scientific (Waltham, MA, USA). Hepatosure OptiThaw media (P/N K8000; Lot No. 18–1–0322) was obtained from Sekisui Xenotech (Kansas City, KS, USA). Trypan blue solution (P/N 1450021) was obtained from Bio-Rad (Hercules, CA, USA). Pooled human cryopreserved primary hepatocyte suspensions were obtained from BioIVT (Westbury, NY, USA) and produced using nontransplantable tissue. The human 50-donor pool (mixed gender; Cat X0080005; Lot MYC), selected from BioIVT’s commercially available, prepooled lots, was selected following review of vendor-generated metabolic characterization information. Pooled, mixed-sex human plasma from de-identified donors was obtained from a commercial vendor that operates a U.S. Food and Drug Administration-licensed and inspected donor center (BioIVT bioivt.com (accessed 12 May 2023). Donors comprised five males and five females and ranged from 20 to 50 years of age. Plasma collected using anticoagulant K2EDTA was sterile-filtered ([…]) and stored at <−70 °C until use.
(§2) The hepatic metabolic stability assay measures the loss of a parent compound over time in a substrate-depletion approach. Briefly, hepatocyte suspensions, after a viability assessment, were diluted in complete William’s medium E (containing dexamethasone and cell maintenance cocktail B) prior to addition to 96-well polypropylene plates containing an equal volume of media spiked with the test compound (1 μM assay concentration; assay cell density = 50,000 cells/100 μL) and maintained at 37 °C with shaking. At each time point, relevant plates were crashed with an equal volume of ice-cold acetonitrile, centrifuged, and supernatant transferred to a new plate prior to storage at <−70 °C until quantitative analysis. Controls, run in parallel, included cell-free (i.e., media only) and metabolically inactivated hepatocytes to evaluate abiotic chemical stability in the aqueous media matrix with and without cellular protein. In preliminary runs, these controls were run at T0 and T240 only. If significant instability was noted, the hepatocyte clearance assay was rerun, including cell-free samples at each time point and metabolically inactivated hepatocytes at selected time points.
(§3) To process samples for quantitative analysis, samples were thawed and mixed. An aliquot of sample was removed and diluted in acetonitrile (1 part sample plus 9 parts acetonitrile) containing the relevant ISs selected for the PFAS being analyzed (See Table S2). The target at instrument concentration of each IS was 10 pg/μL.
(§4) The curves were generated using concentration/response ratios from the target analyte and IS, with either linear or quadratic regression models. The model and weighting, if necessary, were chosen to most accurately reflect the response of each compound and was evaluated by recalculating the individual calibration points using the curve. An acceptable model reflected an accuracy of ±30% of the theoretical value.
(§5) Hepatic metabolic clearance data were plotted in semi-log format (ln concentration vs. time) with three replicates at each time point, as previously described. […] The equations described below are used to calculate the chemical half-life (T½) and intrinsic in vitro clearance (Clin vitro) with units of μL/(min × million hepatocytes). In Equation (3), 2000 is a scalar used to adjust the assay cell number up to be consistent with units of 1 million cells in the Clint equation.
(§6) Negative controls, including media only and metabolically inactivated hepatocyte controls, were included to monitor abiotic loss (i.e., background clearance) during the assay. Where significant compound loss occurred using the analysis described above, background clearance rates were calculated and used to background-adjust hepatic metabolic clearance rates. […]

human plasma [3] = experiment: Ultracentrifugation (UC) plasma protein binding assay, fraction unbound in plasma (fup); conditions: for Fup.Med: median fraction unbound in plasma; for Fup.Med / Fup.point: UC assay Level4; for Fup.point: point estimate of fraction unbound in plasma; for Fraction Unbound (fu), replicates A, B, C: single replicate of one UC run (aqueous fraction / Time 5 hr)
human primary cells = conditions: cited from earlier work
[4] = Abiotic loss in negative controls of the hepatocyte clearance assay (cell-free media, metabolically inactivated hepatocytes); format: in vitro ADME; conditions: for Hep_Stab_Fail: flag for stability failure in hepatocyte clearance assay controls (1 or Fst = fail, 0 = pass)
Protocol: as §2
Negative controls, including media only and metabolically inactivated hepatocyte controls, were included to monitor abiotic loss (i.e., background clearance) during the assay. Where significant compound loss occurred using the analysis described above, background clearance rates were calculated and used to background-adjust hepatic metabolic clearance rates. Where chemicals were cleared prior to the end of the analysis, at 240 min (T240), the corresponding negative control timepoint was used for background subtraction. Any chemicals displaying a 50% or more abiotic loss at T120 were deemed unstable and were excluded from further analyses.

[5] = In vitro-in vivo extrapolation (IVIVE) to Css and administered equivalent dose (AED); set-up: species or system human
Protocol: Using the experimentally generated PPB (fraction unbound in plasma, fup) and hepatic Clint data, IVIVE was performed as previously described to calculate human steady-state plasma concentrations (Css). Briefly, experimental measures of fup are adjusted using blood:plasma partitioning information to estimate the fraction unbound in blood (fub). Experimental hepatocyte Clint data are scaled up to represent whole-liver clearance (L/h). […] Once estimated, these Css values are considered in conjunction with published in vitro bioactivity concentrations (i.e., lowest-observed effective concentrations, or LOECs) to calculate AEDs (Table 2). See Table S10 for all relevant IVIVE inputs, scalars, calculations, and outputs.

human plasma [6] = conditions: human, plasma
in vitro = conditions: both, human, plasma
[7] = Hepatic metabolic stability (hepatocyte clearance) assay, substrate depletion; format: in vitro ADME, human; conditions: both sexes, human, s9, Clint.1.Med
From the text: as §1, §2, §3, §4, §5, §6

[8] = average of one UC run (run date in line above)
[9] = mean T5hr/T1hr ratio over all replicates and runs, plasma
[10] = hepatocyte incubation, Rep 1-3, start conc 1000 nM
[11] = hepatocyte time course, NS = slope not significant
[12] = heat treated hepatocytes control, 0 vs 240 min
[13] = heat treated hepatocytes, Rep 1-3
[14] = Mean fu, fraction unbound in human plasma, ultracentrifugation, some values based on eLOQ

## 3-(Perfluoro-2-butyl) propane-1,2-diol
Human plasma [1]; [8]
  Stability (T5hr/ T1hr), Run-specific Avg: 0.962
Human plasma [1]
  PPB_Stab_Fail: 0
  Fstable.Med: 0.232
  Stability (T5hr/ T1hr), replicates A, B, C: 0.883 and 0.994 and 1.018
Human plasma [1]; [9]
  Mean Stability: 0.965
[2]; Bayesian analysis median, 1 μM assay concentration (Table S9)
  Clint.1.Med: 4.6
[2]; background-subtracted
  Bkgd-Sub Clearance (µL/min/106 hepatocytes): 5.876 µL/min/106 hepatocytes
[2]; hepatocyte clearance, Conc 1000 nM, not background adjusted
  Unadj Clint: 8.61
[2]; [10]
  Concentration (nM), Time 0 min: 880.591 nM and 1037.48 nM and 1054.86 nM
  Concentration (nM), Time 15 min: 858.26 nM and 1099.86 nM and 993.717 nM
  Concentration (nM), Time 30 min: 742.136 nM and 974.371 nM and 915.81 nM
  Concentration (nM), Time 60 min: 904.196 nM and 908.986 nM and 744.943 nM
  Concentration (nM), Time 120 min: 623.052 nM and 608.094 nM and 642.654 nM
  Concentration (nM), Time 240 min: 400.866 nM and 351.17 nM and 326.466 nM
[2]; hepatocyte time course
  Linear Regression Results, Best-Fit Values, Slope: -0.004305
[2]; [11]
  Linear Regression Results, Best-Fit Values, Clearance: 8.61
  Linear Regression Results, Best-Fit Values, Half Life: 160.976
[2]; pooled human hepatocyte suspensions, 1 μM
  In Vitro Clint: 5.88 μL/min/10^6 cells
[2]; unadjusted hepatocyte intrinsic clearance
  Unadj in vitro Clint: 8.61
Human plasma [3]; [8]
  Fraction Unbound (fu), Run-specific Avg: 0.37
Human plasma [3]; fraction unbound in human plasma, ultracentrifugation, some values based on eLOQ
  Mean fu: 0.3696
Human plasma [3]; human plasma, 10 μM, ultracentrifugation, 37 °C
  fup: 0.3696
Human plasma [3]; mean fraction unbound over all replicates and runs, UC assay, human plasma
  Mean Fu: 0.370
Human plasma [3]
  Fup.Med: 0.364
  Fup.point: 0.37
  Fraction Unbound (fu), replicates A, B, C: 0.349 and 0.339 and 0.421
Human primary cells; BioSeek lowest-observed effect concentration used for AED
  LOEC: 2.00 µM
Human primary cells; minimum lowest-observed effect concentration, BioSeek platform
  LOEC: 2 µM
[4]
  Hep_Stab_Fail: 0
[4]; [12]
  HT BkgdCl, Half Life: 285.42
  HT BkgdCl, Slope: -0.002428
[4]; [13]
  Negative Controls, Heat Treated (HT), concentration at 0 min: 1083.95 nM and 2011.47 nM and 1037.82 nM
  Negative Controls, Heat Treated (HT), concentration at 240 min: 725.383 nM and 763.18 nM and 711.759 nM
[4]; no cells control, 0 vs 240 min
  No Cells BkgdCl, Half Life: 506.95
  No Cells BkgdCl, Slope: -0.001367
[4]; no cells, Rep 1-3
  Negative Controls, No cells (NC), concentration at 0 min: 1136.56 nM and 1061.97 nM
  Negative Controls, No cells (NC), concentration at 240 min: 792.448 nM and 800.439 nM and 781.338 nM
[5]; Assuming 1 mg/kg/day dose rate, BW 70 kg
  Css: 0.09 mg/L and 0.30 uM
[5]; IVIVE, hepatocyte Clint scaled to whole-liver clearance
  Clhep: 28.460 L/h
[5]; administered equivalent dose from LOEC and Css
  AED: 6.5951 mg/kg/day
[5]; fub=fup/(B:P), Fub set to 1 if needed
  Fub: 0.672
[5]; human steady-state plasma concentration, assuming 1 mg/kg/day dosage
  Css: 0.30 µM
[5]; scaled with HPGL 110 mill cells/g, Vl 1596 g
  CLint: 1032293 µL/min

## C=CC(=O)OCCC(F)(F)C(F)(F)C(F)(F)C(F)(F)C(F)(F)C(F)(F)C(F)(F)C(F)(F)F [8:2 Fluorotelomer acrylate]
Human plasma [6]
  % remaining_PPB: 0%
  PPB_Stab_Fail: 1
[4]
  Hep_Stab_Fail: 1

## O=C(CC(=O)C(F)(F)C(F)(F)C(F)(F)F)c1cccs1 [(Perfluorobutyryl)-2-thenoylmethane]
Human plasma [1]; [8]
  Stability (T5hr/ T1hr), Run-specific Avg: 1.277
Human plasma [1]; chemical remaining in plasma over the PPB assay time course, NS = no significant loss
  % remaining_PPB: 100%
Human plasma [1]
  PPB_Stab_Fail: 0
  Fstable.Med: 0.959
  Stability (T5hr/ T1hr), replicates A, B, C: 1.693 and 1.2724 and 0.868
Human plasma [1]; [9]
  Mean Stability: 1.278
Human plasma [3]
  Fup.Med: 0.00944
  Fup.point: 0.00576
  Fraction Unbound (fu), replicates A, B, C: 0.006374 and 0.006195
In vitro; Fraction Unbound (fu), Run-specific Avg, average of one UC run (run date in line above)
  fraction unbound: 0.00714
In vitro; Fraction Unbound (fu), replicates A, B, C, single replicate of one UC run (aqueous fraction / Time 5 hr)
  fraction unbound: 0.00885
In vitro; Mean Fu, mean fraction unbound over all replicates and runs, UC assay, human plasma
  fraction unbound: 0.007
In vitro; [14]
  fraction unbound: 0.006
[4]
  Hep_Stab_Fail: Fst

## CCNc1nc(NC(C)C)nc(SC)n1 [Ametryn, reference compound]
[7]
  hepatocyte CLint at 1 μM: 14.7 µL/min/1e6 cells

## FC(F)(I)C(F)(F)C(F)(F)C(F)(F)I [Perfluoro-1,4-diiodobutane]
Human plasma [1]; amount measured in plasma sample at 1 hr, replicates A, B, C, unit not given
  Time 1 hr: 1436.94 and 1194.41 and 1213.84
Human plasma [1]; amount measured in plasma sample at 1 hr, run average, unit not given
  Time 1 hr, Run-specific Avg: 1281.73
Human plasma [1]; amount measured in plasma sample at 5 hr, replicates A, B, C, unit not given
  Time 5 hr: 860.037 and 995.998 and 977.671
Human plasma [1]; amount measured in plasma sample at 5 hr, run average, unit not given
  Time 5 hr, Run-specific Avg: 928.02
Human plasma [1]; average of one UC run
  Stability (T5hr/ T1hr), Run-specific Avg: 0.724
Human plasma [1]
  PPB_Stab_Fail: 0
  Fstable.Med: 0.11
Human plasma [1]; mean T5hr/T1hr ratio in plasma over all replicates/runs
  Mean Stability: 0.740
Human plasma [3]; amount measured in aqueous fraction after ultracentrifugation, replicates A, B, C, unit not given
  Aqueous Fraction: 6.005 and 3.594 and 5.646
Human plasma [3]; amount measured in aqueous fraction after ultracentrifugation, run average, unit not given
  Aqueous Fraction, Run-specific Avg: 5.08
Human plasma [3]
  Fup.Med: 0.00723
  Fup.point: 0.00533
In vitro; Fraction Unbound (fu), Run-specific Avg, average of one UC run
  fraction unbound: 0.00546
In vitro; Fraction Unbound (fu), individual replicates A, B, C of the UC run named in c8
  fraction unbound: 0.00698
In vitro; Mean Fu, mean fraction unbound in human plasma over all UC replicates/runs
  fraction unbound: 0.00546
In vitro; [14]
  fraction unbound: 0.0055
[4]
  Hep_Stab_Fail: 1
